Columns and labels:
[1] = test system: CD4+ T-cells; experiment: Immunostimulation assay with anti-CD3/28 stimulated T-cells, CD69 expression by flow cytometry; type: cell-based, human; details: T-cell; purified human CD4+ and CD8+ T-cells, 1 µg/ml anti-CD3, 1 µg/ml anti-CD28, 16 hours, surface FACS; read-out: EC50 CD4+
Protocol: (§1) Selection of potent compounds based on structure activity relation (SAR) using human, anti-CD3/28 stimulated T-cells. Enhanced activation of stimulated T-cells is measured by CD69 expression by flowcytometry.
(§2) White blood cell enriched buffy coats were ordered from the Austrian red cross, diluted with PBS to a total volume of 480 ml, 30 ml transferred to 50ml falcons and 11 ml lymphoprep added. Cell suspensions were centrifuged for 20 min at 2200 rpm and the PBMC containing layer transferred, three times washed with PBS and counted.
(§3) 10^7 PBMCs were magnetically labeled with CD4 and CD8 microbeads according to manufacturer's instructions and separated using autoMACS device. For dose response experiments with purified CD4+CD8+ T-cells 80000 cells were seeded per 96-well flat bottom cell culture dish.
(§4) 10 mM compounds of the invention stocks were further diluted using DMSO and equal amounts transferred to T-cell containing 96-wells. Final concentrations tested were: 30 µM, 10 µM, 3 µM, 1 µM, 0.3 µM, 0.1 µM, 0.03 µM, 0.01 µM, 0.003 µM and 0.001 µM.
(§5) For the stimulation assays 80.000 purified CD4+ and CD8+ T-cells were seeded per 96-well and incubated with 1 µg/ml anti-CD3, 1 µg/ml anti-CD28 and compounds of the invention ranging from 0.001 µM to 30 µM. DMSO only wells served as control to determine minimal T-cell activation upon stimulation and CD3/28 coupled Dynabeads were used to determine the maximal activation of T-cells. Cells were cultured for 16 hours in a humidified incubator at 37 °C and 5 % CO2.
(§6) T-cells were stained for surface antigens (anti-CD4 and anti-CD8) and cell activation markers (anti-CD25 and anti-CD69). Additionally, a fixable viability dye was used to stain viable cells. Staining was performed for 15 minutes and cells analyzed using a Fortessa flow cytometer and FlowJo Software. EC50s were calculated using GraphPad Prism® and a variable slope model (agonist vs. response - variable slope).

[2] = test system: CD8+ T-cells; experiment: as above; type: cell-based, human; details: T-cell; purified human CD4+ and CD8+ T-cells, 1 µg/ml anti-CD3, 1 µg/ml anti-CD28, 16 hours, surface FACS; read-out: EC50 CD8+
Protocol: as §1, §2, §3, §4, §5, §6

Compound	EC50 [1]	EC50 [2]
Cc1ccc(COc2ccc(-c3nc4c(c(=O)[nH]c(=O)n4CC(C)O)n3C)cc2OC(F)F)cc1 (stereo not drawn) [Compound 76, 8-(3-(difluoromethoxy)-4-((4-methylbenzyl)oxy)phenyl)-3-(2-hydroxypropyl)-7-methyl-3,7-dihydro-1H-purine-2,6-dione]	< 0.1 µM	< 0.1 µM
COc1cc(-c2nc3c(c(=O)[nH]c(=O)n3C[C@H](O)C(F)F)n2C)ccc1OCc1ccccc1 [Compound 53, (S)-8-(4-(benzyloxy)-3-methoxyphenyl)-3-(3,3-difluoro-2-hydroxypropyl)-7-methyl-3,7-dihydro-1H-purine-2,6-dione]	< 0.1 µM	< 0.1 µM
COc1cc(-c2nc3c(c(=O)[nH]c(=O)n3CC(C)O)n2C)ccc1OCc1ccc(OC(F)(F)F)cc1 (stereo not drawn) [Compound 82, 3-(2-hydroxypropyl)-8-(3-methoxy-4-((4-(trifluoromethoxy)benzyl)oxy)phenyl)-7-methyl-3,7-dihydro-1H-purine-2,6-dione]	0.1 to 0.5 µM	0.1 to 0.5 µM
COCC(O)Cn1c(=O)[nH]c(=O)c2c1nc(-c1ccc(OCc3ccccc3)c(OC)c1)n2C (stereo not drawn) [Compound 54, 8-(4-(benzyloxy)-3-methoxyphenyl)-3-(2-hydroxy-3-methoxypropyl)-7-methyl-3,7-dihydro-1H-purine-2,6-dione]	1 to 5 µM	1 to 5 µM
COc1cc(-c2nc3c(c(=O)[nH]c(=O)n3CC(O)CO)n2C)ccc1OCc1ccc(C(F)F)cc1 (stereo not drawn) [Compound 72, 8-(4-((4-(difluoromethyl)benzyl)oxy)-3-methoxyphenyl)-3-(2,3-dihydroxypropyl)-7-methyl-3,7-dihydro-1H-purine-2,6-dione]	1 to 5 µM	1 to 5 µM
COc1cc(-c2nc3c(c(=O)[nH]c(=O)n3CC(O)C(F)F)n2C)ccc1OCc1ccc(C)cc1 (stereo not drawn) [Compound 19, 3-(3,3-difluoro-2-hydroxypropyl)-8-(3-methoxy-4-((4-methylbenzyl)oxy)phenyl)-7-methyl-3,7-dihydro-1H-purine-2,6-dione]	0.5 to 1 µM	< 0.1 µM
Cc1ccc(COc2ccc(-c3nc4c(c(=O)[nH]c(=O)n4CC(O)C(F)F)n3C)cc2F)cc1 (stereo not drawn) [Compound 80, 3-(3,3-difluoro-2-hydroxypropyl)-8-(3-fluoro-4-((4-methylbenzyl)oxy)phenyl)-7-methyl-3,7-dihydro-1H-purine-2,6-dione]	< 0.1 µM	< 0.1 µM
COc1cc(-c2nc3c(c(=O)[nH]c(=O)n3CC(O)C(F)(F)F)n2C)ccc1OCc1ccccc1 (stereo not drawn) [Compound 57, 8-(4-(benzyloxy)-3-methoxyphenyl)-7-methyl-3-(3,3,3-trifluoro-2-hydroxypropyl)-3,7-dihydro-1H-purine-2,6-dione]	0.5 to 1 µM	1 to 5 µM
COc1cc(-c2nc3c(c(=O)[nH]c(=O)n3CC(CO)C(F)F)n2C)ccc1OCc1ccc(C(F)F)cc1 (stereo not drawn) [Compound 66, 3-(3,3-difluoro-2-(hydroxymethyl)propyl)-8-(4-((4-(difluoromethyl)benzyl)oxy)-3-methoxyphenyl)-7-methyl-3,7-dihydro-1H-purine-2,6-dione]	< 0.1 µM	< 0.1 µM

Second part, the compound after the results:

EC50 [1]	EC50 [2]	Compound
0.1 to 0.5 µM	0.1 to 0.5 µM	CC(CO)Cn1c(=O)[nH]c(=O)c2c1nc(-c1ccc(Oc3ccc(OC(F)(F)F)cc3)c(F)c1)n2C (stereo not drawn) [Compound 152, 8-(3-fluoro-4-(4-(trifluoromethoxy)phenoxy)phenyl)-3-(3-hydroxy-2-methylpropyl)-7-methyl-3,7-dihydro-1H-purine-2,6-dione]
0.1 to 0.5 µM	0.1 to 0.5 µM	Cn1c(-c2ccc(Oc3ccc(OC(F)(F)F)cc3)c(F)c2)nc2c1c(=O)[nH]c(=O)n2CC(O)C(F)(F)F (stereo not drawn) [Compound 167, 8-(3-fluoro-4-(4-(trifluoromethoxy)phenoxy)phenyl)-7-methyl-3-(3,3,3-trifluoro-2-hydroxypropyl)-3,7-dihydro-1H-purine-2,6-dione]
0.1 to 0.5 µM	0.1 to 0.5 µM	COc1cc(-c2nc3c(c(=O)[nH]c(=O)n3CC(C)O)n2C)ccc1OCc1ccc(Cl)cc1 (stereo not drawn) [Compound 88, 8-(4-((4-chlorobenzyl)oxy)-3-methoxyphenyl)-3-(2-hydroxypropyl)-7-methyl-3,7-dihydro-1H-purine-2,6-dione]
0.1 to 0.5 µM	0.1 to 0.5 µM	COc1cc(-c2nc3c(c(=O)[nH]c(=O)n3CC(C)O)n2C)ccc1OCc1ccc(F)c(Cl)c1 (stereo not drawn) [Compound 99, 8-(4-((3-chloro-4-fluorobenzyl)oxy)-3-methoxyphenyl)-3-(2-hydroxypropyl)-7-methyl-3,7-dihydro-1H-purine-2,6-dione]
1 to 5 µM	1 to 5 µM	Cn1c(-c2ccc(Oc3ccc(OC(F)F)cc3)cc2)nc2c1c(=O)[nH]c(=O)n2CC(O)C(F)(F)F (stereo not drawn) [Compound 165, 8-(4-(4-(difluoromethoxy)phenoxy)phenyl)-7-methyl-3-(3,3,3-trifluoro-2-hydroxypropyl)-3,7-dihydro-1H-purine-2,6-dione]
1 to 5 µM	1 to 5 µM	CC(O)Cn1c(=O)[nH]c(=O)c2c1nc(-c1ccc(Oc3ccc(OC(F)(F)F)cc3Cl)cc1)n2C (stereo not drawn) [Compound 192, 8-(4-(2-chloro-4-(trifluoromethoxy)phenoxy)phenyl)-3-(2-hydroxypropyl)-7-methyl-3,7-dihydro-1H-purine-2,6-dione]
1 to 5 µM	1 to 5 µM	CC(O)Cn1c(=O)[nH]c(=O)c2c1nc(-c1ccc(Oc3cccc(Cl)c3)cc1)n2C (stereo not drawn) [Compound 184, 8-(4-(3-chlorophenoxy)phenyl)-3-(2-hydroxypropyl)-7-methyl-3,7-dihydro-1H-purine-2,6-dione]
0.1 to 0.5 µM	0.1 to 0.5 µM	CC(O)Cn1c(=O)[nH]c(=O)c2c1nc(-c1ccc(Oc3ccc4ccccc4c3)cc1)n2C (stereo not drawn) [Compound 186, 3-(2-hydroxypropyl)-7-methyl-8-(4-(naphthalen-2-yloxy)phenyl)-3,7-dihydro-1H-purine-2,6-dione]
< 0.1 µM	0.1 to 0.5 µM	Cc1ccc(COc2ccc(-c3nc4c(c(=O)[nH]c(=O)n4CC(O)C(F)(F)F)n3C)cc2F)cc1 (stereo not drawn) [Compound 102, 8-(3-fluoro-4-((4-methylbenzyl)oxy)phenyl)-7-methyl-3-(3,3,3-trifluoro-2-hydroxypropyl)-3,7-dihydro-1H-purine-2,6-dione]
< 0.1 µM	< 0.1 µM	Cc1ccc(COc2ccc(-c3nc4c(c(=O)[nH]c(=O)n4CC(C)O)n3C)cc2C(F)(F)F)cc1 (stereo not drawn) [Compound 123, 3-(2-hydroxypropyl)-7-methyl-8-(4-((4-methylbenzyl)oxy)-3-(trifluoromethyl)phenyl)-3,7-dihydro-1H-purine-2,6-dione]
0.1 to 0.5 µM	0.1 to 0.5 µM	Cn1c(-c2ccc(Oc3ccc(Cl)cc3)c(Cl)c2)nc2c1c(=O)[nH]c(=O)n2CC(O)C(F)(F)F (stereo not drawn) [Compound 153, 8-(3-chloro-4-(4-chlorophenoxy)phenyl)-7-methyl-3-(3,3,3-trifluoro-2-hydroxypropyl)-3,7-dihydro-1H-purine-2,6-dione]
1 to 5 µM	1 to 5 µM	CC(O)Cn1c(=O)[nH]c(=O)c2c1nc(-c1ccc(Oc3ccccc3)c(Cl)c1)n2C (stereo not drawn) [Compound 141, 8-(3-chloro-4-phenoxyphenyl)-3-(2-hydroxypropyl)-7-methyl-3,7-dihydro-1H-purine-2,6-dione]
